Test results from the NIST ThermoML archive (doi:10.1021/je100972k).
“And” between values parts separate entries of the source, which are not always exact repeats. Identical values can stand only once.

Conditions: Crystal

[F-].[F-].[F-].[F-].[Zr+4] [zirconium(IV) fluoride]
Conditions	vapor or sublimation pressure
685 K	8.13e-06 kPa
689 K	8.13e-06 kPa
690 K	1.05e-05 kPa
693 K	1.05e-05 kPa and 1.62e-05 kPa
698.5 K	1.62e-05 kPa
699 K	1.55e-05 kPa and 2.4e-05 kPa
704 K	1.2e-05 kPa
705 K	3.24e-05 kPa
706.5 K	2.4e-05 kPa
707 K	3.09e-05 kPa
709 K	3.09e-05 kPa
709.5 K	2.82e-05 kPa
711 K	4.9e-05 kPa
711.5 K	1.62e-05 kPa
712.5 K	2.4e-05 kPa
713 K	4.17e-05 kPa
713.5 K	3.24e-05 kPa
715 K	2.04e-05 kPa
717 K	6.46e-05 kPa and 2.4e-05 kPa
719 K	3.63e-05 kPa
720 K	4.9e-05 kPa and 3.47e-05 kPa and 2.82e-05 kPa
720.5 K	5.25e-05 kPa
721 K	3.24e-05 kPa
723.5 K	4.9e-05 kPa
724 K	6.46e-05 kPa and 4.68e-05 kPa
724.5 K	4.68e-05 kPa
725.5 K	4.07e-05 kPa and 3.63e-05 kPa
726.5 K	4.07e-05 kPa
728.5 K	9.33e-05 kPa and 0.000112 kPa
729 K	6.46e-05 kPa
729.5 K	8.91e-05 kPa
730 K	8.32e-05 kPa and 6.92e-05 kPa
731.5 K	5.62e-05 kPa and 4.9e-05 kPa
732 K	6.92e-05 kPa and 5.62e-05 kPa
734.5 K	0.000112 kPa
735 K	8.91e-05 kPa
735.5 K	0.000162 kPa
736 K	0.00012 kPa and 9.33e-05 kPa
737 K	0.000117 kPa and 8.13e-05 kPa and 6.46e-05 kPa
737.5 K	0.000145 kPa and 7.24e-05 kPa
739.5 K	0.000135 kPa
740.5 K	0.000155 kPa and 9.33e-05 kPa
741 K	0.000112 kPa
742 K	0.000219 kPa
743 K	0.000141 kPa and 0.000105 kPa and 8.91e-05 kPa
743.5 K	0.000162 kPa and 9.77e-05 kPa
746.5 K	0.000224 kPa and 0.000209 kPa and 0.000204 kPa
748 K	0.000162 kPa
748.5 K	0.000282 kPa and 0.00012 kPa
749 K	0.000151 kPa and 0.000129 kPa
750 K	0.000145 kPa
750.5 K	0.000209 kPa
751 K	0.00024 kPa
751.5 K	0.000251 kPa
753 K	0.000209 kPa and 0.000158 kPa
754 K	0.000324 kPa and 0.000209 kPa
754.5 K	0.000372 kPa and 0.00017 kPa
755 K	0.000178 kPa
756 K	0.000288 kPa and 0.000417 kPa and 0.000302 kPa
756.5 K	0.000302 kPa
757 K	0.000302 kPa
757.5 K	0.000251 kPa
758 K	0.000195 kPa
759 K	0.000257 kPa
760 K	0.000234 kPa and 0.000219 kPa
760.5 K	0.000363 kPa
763 K	0.000513 kPa [middle of 4 runs]
764 K	0.000234 kPa
765 K	0.000347 kPa
765.5 K	0.000302 kPa
766 K	0.000468 kPa [middle of 5 runs]
766.5 K	0.000457 kPa
769 K	0.000741 kPa and 0.000437 kPa
770.5 K	0.000447 kPa
771.5 K	0.000363 kPa
772 K	0.000537 kPa and 0.000407 kPa
773 K	0.000417 kPa
774 K	0.000891 kPa and 0.000427 kPa
775 K	0.000646 kPa
777.5 K	0.000603 kPa
778 K	0.000525 kPa and 0.000501 kPa
779 K	0.000724 kPa
781 K	0.00055 kPa
783 K	0.000646 kPa
783.5 K	0.000933 kPa
784 K	0.000813 kPa
785 K	0.000646 kPa
786 K	0.001 kPa
788 K	0.00145 kPa
789 K	0.000813 kPa
789.5 K	0.00102 kPa
791 K	0.000977 kPa
792 K	0.00129 kPa
793 K	0.00129 kPa
794 K	0.00105 kPa
798 K	0.00148 kPa and 0.00123 kPa and 0.00126 kPa
799 K	0.00234 kPa
801 K	0.00186 kPa and 0.0017 kPa
802 K	0.00155 kPa
803 K	0.00166 kPa
803.5 K	0.00186 kPa
807 K	0.00209 kPa
808 K	0.00295 kPa
810.5 K	0.0024 kPa
811 K	0.00275 kPa and 0.00209 kPa
815 K	0.00295 kPa
818 K	0.00389 kPa
821 K	0.0038 kPa
823 K	0.00617 kPa
828 K	0.00562 kPa
